Assay results from patent US5585380A, “Modulation of cellular response to external stimuli” (priority 1995, dated 1996).

Assays:
T cell proliferation = conditions: Singer et al., Bone Marrow Transplantation (in press); cited from earlier work
[1] = tested on: NIH3T3 cell line (D5C3) transformed with temperature-sensitive v-abl mutant gene; assay: Blocking transformed phenotype of D5C3 cells; type: cell-based, murine; conditions: pentoxifylline 1 mM, Ciprofloxacin 50 μg/ml
Procedure: An NIH3T3 cell line ([MUT]) provides target cells which were transformed by an activated oncogene. The cells were transformed with a temperature-sensitive v-abl mutant gene. This mutant gene encodes a temperature-sensitive v-abl protein that produces a non-oncogenic product at a non-permissive temperature due to a lack of tyrosine phosphorylation. The cells were incubated at the permissive temperature (33° C.) for 5 days after passage with and without pentoxifylline (1 mM).

[2] = tested on: patients undergoing allogeneic bone marrow transplant; assay: Preliminary study in allogeneic bone marrow transplant patients; type: in vivo, human; conditions: first 30 days post-transplant; PTX/CIPRO N=10, GM-CSF N=27; all also PD and cyclosporin
Procedure: A preliminary study was conducted on patients undergoing allogeneic bone marrow transplant for multiple myeloma, for lymphoid malignancies, or for advanced stage CML or AML. Prednisone is often administered as an immunosuppressant in all experimental groups. In the study, these patients received the drugs for a minimum of 3 days to a maximum of 7 days prior to starting their preparative regimen while in the outpatient department according to the following regimen:
PTX: 600 mg p.o. qid at 9 am, 1 pm, 5 pm and 9 pm;
CIPRO: 500 mg p.o.b.i.d.; and
PD: 0.5 mg/kg b.i.d. (total 1 mg/kg/day changed to methylprednisolone at an equivalent dose starting on day -1).
For the duration of therapy, the patients are continued on the study drugs as follows:
PTX: until day +20 post-transplant then tapered 600 mg/day until off;
CIPRO: until day 30 post-transplant or day of discharge if sooner than day 30; and
PD: tapered starting on day 0 over 14 days until off.
All patients in these studies received PD and cyclosporin as GVHD prophylaxis. Granulocyte recovery was measured post-bone marrow transplant in patients receiving therapy with PTX, CIPRO in addition to standard PD administration (N=10), or GM-CSF (N=10), or PTX (N=4).

[3] = tested on: recipients of matched allogeneic donor marrow; assay: Matched allogeneic donor trial; type: in vivo, human
Text: (§1) They are given steroids to reduce inflammation. […] In this group of patients, GVHD approaches 90%.

[4] = tested on: recipients of marrow from unrelated donors; assay: Unrelated donor trial; type: in vivo, human
Text: as §1

[5] = tested on: PA and DAG levels in human glomerular mesangial cells; assay: Invention assay: HPLC of lipids from IL-1-stimulated mesangial cells; type: cell-based; conditions: HMC incubated with diacylglycerol kinase inhibitor
Procedure: The compounds of Formula I are shown to modulate the effects of primary stimuli which elevate levels of the relevant subspecies of PA and DAG using the assay system of the invention. In general for the assay, the cells to be tested are first incubated with the primary stimulating agent for various time periods and fixed in ice-cold methanol. The lipids are extracted using, for example, chloroform:methanol 2:1 (v/v), and the extracts are then subjected to HPLC as described by Bursten and Harris, Biochemistry (1991)------. In this method, a Rainin mu-Porasil column is used with a 3:4 hexane:propanol organic carrier and a 1-10% water gradient during the first 10 minutes of separation. Detection of the peaks in the elution pattern is by absorption in the range of ultraviolet which detects isolated double bonds. Thus, the relevant peaks of unsaturated PA and DAG are shown in the elution pattern. It is important to note that the assay method permits discrimination between various forms of PA and DAG so that those relevant to the pathway affected by the compounds of Formula I can be measured directly. Confirmation of the nature of the acyl substituents of these components is accomplished using fast-atom bombardment mass spectroscopy. Thus, the relevant unsaturated (non-arachidonic) PA and DAG subspecies may be detected. The time periods employed are 5-60 seconds after stimulation with the primary stimulus, such as a cytokine. This technique permits assessment of the levels of various lipid components as a function of time.
To test the effect of the compounds of the invention, the candidate compound is included in the initial incubation at various concentrations. Fixing, extraction and HPLC are conducted as above. The effect of the candidate compound is then reflected in a lowering of the relevant PA and DAG levels as compared to the cells without candidate in the control as illustrated hereinbelow.
Human glomerular mesangial cells were incubated with IL-1 for various time periods of 5-60 seconds and the cells were fixed in ice-cold methanol, and the lipids extracted using chloroform:methanol 2:1 (v/v). It is very important that the fixing/extraction process be conducted quickly so that the decomposition of unstable intermediates is halted.
The extracts were subjected to HPLC on a Rainin mu-Porasil column with a 3:4 hexane:propanol organic carrier and a 1-10% water gradient during the first 10 minutes of separation. The relative concentration of each lipid species is determined using absorption at 206 nm (A206), which follows unsaturated acyl content of lipid species. […] The absolute mass of each lipid species is determined by lisolation of the lipid using a fraction collector, repurification on the HPLC column. […] Protein concentration is determined using the Bradford technique. […]

[6] = day on which ANC ≥ 100 cells/uL on two consecutive days
[7] = day on which ANC ≥ 1,000 cells/uL on two consecutive days
[8] = first day RBC count ≥ 30% for 7 consecutive days untransfused
[9] = first day platelet count ≥ 20,000/uL for 7 consecutive days untransfused
[10] = initial discharge from the hospital
[11] = maximum serum bilirubin days 0-28 post BMT
[12] = maximum serum creatinine day 0-28 post BMT

Question: Which “suppression of T cell proliferation” value (T cell proliferation) does the source give for `CCOCn1cnc2c1c(=O)n(CCCCC(C)(C)O)c(=O)n2C` [HWA448, reference compound] here?
Answer: Its value is “active”.

Question: With `Cn1cnc2c1c(=O)n(CCCC(=O)O)c(=O)n2C` [M5, 1-(3-carboxypropyl)-3,7-dimethylxanthine] as the compound, how does the “suppression of T cell proliferation” value (T cell proliferation) read?
Answer: Its value is “minimal or no suppression”.

Question: Which “effect on the transformed phenotype” value [1] does the source give for `O=C(O)c1cn(C2CC2)c2cc(N3CCNCC3)c(F)cc2c1=O` [Ciprofloxacin] here?
Answer: The value was “significant effect”.

Question: With `Cn1cnc2c1c(=O)n(CCCCC(=O)O)c(=O)n2C` [M4, 1-(4-carboxybutyl)-3,7-dimethylxanthine] as the compound, how does the “suppression of T cell proliferation” value (T cell proliferation) read?
Answer: The value was “minimal or no suppression”.

Question: Which results are given for “GM-CSF: granulocyte-macrophage colony-stimulating factor”?
Answer: platelet transfusion requirement [2]: 87±69 units; red blood cell requirement [2]: 24.7±24 units; ANC ≥ 100, mean ± standard deviation [3, 6]: 8 ± 6 days; ANC ≥ 100, median [3, 6]: 9.0 days; ANC ≥ 1,000, mean ± standard deviation [3, 7]: 16 ± 9 days; ANC ≥ 1,000, median [3, 7]: 14.0 days; Bili ≥ 5.0 mg/dL, patients ([3]; days 0-28 post BMT): 44%; Creat ≥ 2.0 mg/dL, patients ([3]; days 0-28 post BMT): 22%; ANC ≤ 100, mean ± standard deviation ([3]; days below 100 cells/uL): 6 ± 4 days; ANC ≤ 100, median ([3]; days below 100 cells/uL, GM-CSF 27, PTX/CIPRO 23 patients): 5.0 days; Last RBC day, mean ± standard deviation [3, 8]: 63 ± 39 days; Last RBC day, median [3, 8]: 59.0 days; Last plt day, mean ± standard deviation [3, 9]: 17 ± 11 days; Last plt day, median [3, 9]: 23.0 days; Day discharge, mean ± standard deviation [3, 10]: 26 ± 13 days; Day discharge, median [3, 10]: 24.0 days; Max Bili, mean ± standard deviation [3, 11]: 8 ± 10 mg/dL; Max Bili, median [3, 11]: 5.0 mg/dL; Max Creat, mean ± standard deviation [3, 12]: 1.8 ± 1.4 mg/dL; Max Creat, median [3, 12]: 1.5 mg/dL; Day 100 Survival ([3]; patients alive 100 days post transplant): 69%; Infection 0-28 ([3]; patients with positive bacterial blood cultures days 0-28 post BMT): 14%; Units platelets, mean ± standard deviation ([3]; platelets transfused day 0-28): 87 ± 74 units; Units platelets, median ([3]; platelets transfused day 0-28): 74.0 units; ANC ≤ 100, mean ± standard deviation [4]: 12 ± 7 days; ANC ≥ 100, mean ± standard deviation [4]: 18 ± 6 days; ANC ≥ 100, median [4]: 18.5 days; ANC ≥ 500, mean ± standard deviation [4]: 23 ± 4 days; ANC ≥ 500, median [4]: 22.5 days; ANC ≥ 1,000, mean ± standard deviation [4]: 26 ± 5 days; ANC ≥ 1,000, median [4]: 26.0 days; Bili ≥ 5.0 mg/dL, patients [4]: 46%; Day 100 Survival [4]: 86%; Day initial discharge, mean ± standard deviation [4]: 37 ± 14 days; Day initial discharge, median [4]: 37.0 days; GVHD Grade 0 [4]: 15%; GVHD Grade I [4]: 8%; GVHD Grade II [4]: 46%; GVHD Grade III [4]: 27%; GVHD Grade IV [4]: 4%; Infection 0-28 [4]: 7%; Last plt day, mean ± standard deviation [4]: 26 ± 6 days; Last plt day, median [4]: 24.5 days; Max Bili, mean ± standard deviation [4]: 7 ± 7 mg/dL; Max Bili, median [4]: 5.5 mg/dL; Max Creat, mean ± standard deviation [4]: 1.4 ± 1.2 mg/dL; Max Creat, median [4]: 1.1 mg/dL; Units platelets, mean ± standard deviation [4]: 90 ± 42 units; Units platelets, median [4]: 92.0 units; ANC ≤ 100, median ([4]; GM-CSF 30, PTX/CIPRO 17 patients): 12 days

Question: With `CC(O)CCCCn1c(=O)c2c(ncn2C)n(C)c1=O` (stereo not shown) [M1, 1-(5-hydroxyhexyl)-3,7-dimethylxanthine] as the compound, how does the “suppression of T cell proliferation” value (T cell proliferation) read?
Answer: The value was “active”.

Question: With `CC(O)C(O)CCCn1c(=O)c2c(ncn2C)n(C)c1=O` (stereo not shown) [M3, 1-(4,5-dihydroxyhexyl) -3,7-dimethylxanthine] as the compound, how does the “suppression of T cell proliferation” value (T cell proliferation) read?
Answer: Its value is “minimal or no suppression”.

Question: Which “suppression of T cell proliferation” value (T cell proliferation) does the source give for `Cn1c(=O)n(CCCCC(C)(C)O)c(=O)c2[nH]cnc21` [HWA138, reference compound] here?
Answer: The value was “minimal or no suppression”.

Question: Which “HPLC pattern (reappearance of PA after IL-1)” value [5] does the source give for `Cc1nc2sccn2c(=O)c1CCN1CCC(=C(c2ccccc2)c2ccc(F)cc2)CC1` [R 50922] here?
Answer: The value was “does not alter the HPLC pattern”.
